Measurements reported in patent publication US11185539B2 (priority 2017, dated 2021).

Key:
[1] = Plasma markers of kidney and liver damage, angiotensin II model; assay type: in vivo, mice; settings: Bufalin 0.5, Gitoxigenin 0.01, Lycorine 4.5, Anisomycin 10 mg/kg i.p. every other day; day 14
Method: HF was induced in mice (Example 3) and Bufalin (0.5 mg/kg), Gitoxigenin (0.01 mg/kg), Lycorine (4.5 mg/kg), and Anisomycin (10 mg/kg) were injected as indicated in Example 3. Fourteen days after the operation, EDTA-plasma samples were drawn (n=2-3 per group) (see FIGS. 26 and 27).

[2] = system: C57BL/6 mice with angiotensin II-induced diastolic heart failure; experiment: Echocardiography in murine model of angiotensin II-induced cardiac fibrotic disease (two weeks); assay type: in vivo; settings: i.p. every other day, Bufalin 0.5, Lycorine 4.5, Anisomycin 10, Gitoxigenin 0.01 mg/kg, day 14
Method: Diastolic heart failure (HF) was induced in C57BL/6 mice via implantation of angiotensin II filled minipumps. Male C57BL/6 mice 8-10 weeks old were used in the present invention being based on a C57BL/6N-background (Charles River, Germany).
For implantation of angiotension II filled minipumps, Angiotensin-II is applied by osmotic minipumps for two weeks (Alzet® [Modell 1001]). The recommended dose amounts for 1.5 or 3.0 mg/kg/per day. The minipumps are filled under sterile conditions with Angiotensin-II or with isotonic saline solution functioning as a control substance. Implantation takes place under intraperitoneal injection anaesthesia. […] Mice are then fixed on a pre-heated operating table and are provided with Bepanthen eye salve against drying out of the conjunctives. The operating field is located in the right caudal third of the back. It is shaved and desinfected with Braunol, afterwards it is coated with a 0.5% Lidocain-solution. After a period of one hour implantation can be started. The skin is cut through vertical to the back line, preferably the length is one centimeter. A pocket from the cutting line to cranial is subcutaneously formed. Herein, the minipumps are injected. Afterwards, the skin is then closed with a 5-0 Prolene string with interrupted sutures. Then, the closed wound is coated again with Braunol. For preventing hypothermia mice wake up in their cages, which are placed up to one-third on a terrarium-warming mat with regulated temperatures of 37°. Surgery amounts for 5 minutes/per animal.
Next, the natural compounds (Bufalin, Gitoxigenin, Lycorine, and Anisomycin) were injected intraperitoneally every other day during two consecutive weeks starting two days after the operation (see FIG. 6). DMSO was also injected into C57BL/6 mice with induced cardiac remodeling as a control. Cardiac function was assessed echocardiographically and fibrosis-development via collagen staining with picosirius-red in histological sections of the hearts (Example 4).
Diastolic HF was induced in C57BL/6 mice and the natural compounds were injected as indicated in Example 3. Fourteen days after the operation, cardiac function of the mice was assessed echocardiographically (n=9-15 per group) by treating the mice with said compounds (Bufalin: 0.5 mg/kg, Lycorine 4.5 mg/kg, Anisomycin: 10 mg/kg and Gitoxigenin: 0.01 mg/kg). A decrease of the Myocardial Performance Index (MPI) as well as a reduction of the isovolumetric relaxation time (IVRT) and an increase in E to A peak ratio (E/A) (the ratio of the early (E) to late (A) ventricular filling velocities as a marker of the function of the left ventricle of the heart) indicate improvement of both global (MPI) and diastolic (IVRT and E/A) function of the heart (see FIGS. 7 and 9).

[3] = system: cardiomyocyte cell line HL-1; experiment: Proliferation of cardiomyocyte cell line HL-1, BrdU-ELISA; assay type: cell-based; settings: same concentrations as on HCFs, 24 h, DMSO control
Method: HCFs and HL-1 cells were treated with Bufalin, Gitoxigenin, Lycorine and Anisomycin for 24 h with the same concentrations as indicated in Example 1 and proliferation of HCFs and cardiomyocyte cell line HL-1 cells was measured by BrdU-ELISA, DMSO refers as a control (see FIG. 2B, 3B, 4B, 5B). The cell proliferation ELISA is a colorimetric alternative to quantitate cell proliferation based on the measurement of BrdU incorporation during DNA synthesis in proliferating cells. After its incorporation into DNA, BrdU is detected by immunoassay by using antibodies being highly specific for BrdU. First, HCFs and/or HL-1 cells are cultured together with various dilutions of test substances (e.g. mitogens, growth factors, cytokines and test compounds such as Bufalin, Gitoxigenin, Lycorine and Anisomycin as mentioned above etc.) in a 96-well in a final volume of 100 μl/well in a humified atmosphere of 37° C. Afterwards, 10 μl/well BrdU labeling solution is added to the cells being cultured in 100 μl/well (final concentration: 10 μM BrdU). Then, cells were re-incubated for additional 2 to 24 h at 37° C. Next, labeling solution is removed and 200 μl/well FixDenat is added to the cells and incubated for 30 min at 15 to 25° C. Then, 100 μl/well anti-BrdU-POD working solution is added and incubated for approximately 90 min, after FixDenat is removed. Next, antibody conjugate is removed and wells are washed with 200 μl-300 μl/well Washing solution (PBS, 1×). After the washing solution is removed, 100 μl/well Substrate solution is added and it is incubated again until color development is sufficient for photometric detection. Further, HCFs were treated with said compounds (Lycorine: 5 μM, Bufalin: 1 μM, Gitoxigenin: 1 μM and Anisomycin: 1 μM) for 24 h as indicated again and subjected to FACS analysis after Annexin-7AAD-staining (see FIG. 2C, 3C, 4C, 5C). After the treatment with said compounds, annexin-7AAD-staining starts with inducing apoptosis in HCFs by a desired method, known to the person skilled in the art, a negative control (w/o induction and staining) and a positive control (f. ex. 500 μM H2O2 or 3 μM Staurosporin) is also needed. Then, the medium with HCFs is transferred into a falcon, washed with PBS and trypsinized. Everything is centrifuged for 5 min at 300×g and then the supernatant is aspirated. The pellet is re-suspended in 200 μl Annexin Red/7AAD Working Solution (1:20, 5 μl Annexin Red/7AAD+195 μl 1× Assay Buffer) and transferred into an Easy Cap Eppendorf tube. After incubation of 15 min at 37° C., it is centrifuged at room temperature (RT) for 5 min at 300×g. […] Samples are now ready for acquisition on a flow cytometer (blue and red laser).

CDR1 mRNA = assay type: cell-based, human; settings: Lycorine 5 μM, others 1 μM, 24 h, vs DMSO
Method: Expression levels of CDR1 mRNA change independently of miR-671-5p or CDR1as in primary HCFs upon treatment with Bufalin, Gitoxigenin, Lycorine, Anisomycin and Geldanamycin. HCFs were incubated for 24 h with Bufalin (1 μM), Gitoxigenin (1 μM,) Lycorine (5 μM), Anisomycin (1 μM) and Geldanamycin (1 μM) and impact on CDR1 mRNA level (normalized to GAPDH) by the respective compound was validated via qRT-PCR (see FIG. 23).

SMILES | plasma marker of kidney and liver damage (GOT, GPT, creatinine, urea) [1] | E to A peak ratio (E/A) [2] | Myocardial Performance Index (MPI) [2] | isovolumetric relaxation time (IVRT) [2] | proliferation of the cardiomyocyte cell line HL-1 [3] | expression levels of CDR1 mRNA (normalized to GAPDH) (CDR1 mRNA)
COc1ccc(C[C@H]2NC[C@H](O)[C@H]2OC(C)=O)cc1 [Anisomycin] | no elevation | increase | decrease | reduction | no impact | decrease
C[C@]12CC[C@H](O)C[C@H]1CC[C@@H]1[C@@H]2CC[C@]2(C)[C@@H](c3ccc(=O)oc3)CC[C@]12O [Bufalin] | no elevation | increase | decrease | reduction | no impact | decrease
C[C@]12CC[C@H](O)C[C@H]1CC[C@@H]1[C@@H]2CC[C@]2(C)[C@@H](C3=CC(=O)OC3)[C@@H](O)C[C@]12O [Gitoxigenin] | no elevation | increase | decrease | reduction | no impact | decrease
O[C@H]1[C@H]2c3cc4c(cc3CN3CCC(=C[C@@H]1O)[C@H]23)OCO4 [Lycorine] | no elevation | increase | decrease | reduction | no impact | decrease
